Legend:
[1] = Effect on body weight loss and food intake in wildtype Diet Induced Obesity (DIO) mice; format: in vivo
Source text: Effect on Body Weight Loss in Wildtype Diet Induced Obesity Mice
Male C57BL6/J pre-fed on 60% high fat diet were obtained from The Jackson Laboratories at >16 weeks of age. Upon arrival of the Diet Induced Obesity (DIO) mice, the mice where single housed to obtain accurate and individual food intake measurements of each animal and assigned an animal number. […] During the entire study animals had ad libitum access to food and water.
Before start of treatment a stratified randomization was performed based on the body weight measured in week −1 prior study start. At study start the age of mice was around 20 weeks. Bodyweight and food intake were measured daily before compound administration. Animals were dosed around one hour before start of the night phase by subcutaneous injection of 30 nmol/kg once daily for 5 till 28 days depending on the experiment. Control animals were dosed by subcutaneous injection daily with vehicle.

[2] = Effect on acute food intake (AFI) in normal NMRI mice; format: in vivo; conditions: male NMRI mice, 10 nmol/kg s.c. once, % vs. vehicle group
Experimental: Effect on Acute Food Intake in Normal NMRI Mice
Male NMRI mice were obtained from Charles River (Charles River, Research Models & Services Germany GmbH) or from JanVier (JanVier Labs, France) at 5 weeks of age. […] Room temperature was controlled to 21° C.±1° C., with 60%±20% humidity.
Animals were transferred 5-7 days before the start of the study to a real-time food intake monitoring system, HM-2 system (MBRose, Denmark), to allow acclimatization to experimental conditions. As the animals were uniquely identified with microchips, each individual animal was identified by its microchip upon entry and exit from the food channel. Randomization of the mice for each study group (n=7-8) was based on body weight measured the day before the start of the study. A vehicle-treated (50 mM phosphate buffer pH7 with 5% Mannitol) group was included in each experiment. Six hours before the start of the night phase animals were fasted. One hour before the dark phase animals were dosed once subcutaneously (10 nmol/kg) with test peptide. […] The food intake of the treated groups was normalized (in %) to the average food intake of the group receiving vehicle (Table 1). Statistical significance was evaluated using One-way analysis of variance with Turkey's multiple comparison test. P<0.05 was considered statistically significant.

CC[C@H](C)[C@H](NC(=O)[C@H](CCC(=O)O)NC(=O)[C@H](CCC(=O)O)NC(=O)[C@@H]1CCCN1C(=O)[C@H](CO)NC(=O)[C@H](C)NC(=O)[C@H](CC(=O)O)NC(=O)[C@H](CCC(=O)O)NC(=O)[C@H](CCC(=O)O)NC(=O)[C@@H]1CCCN1C(=O)[C@H](CCCCNC(=O)COCCOCCNC(=O)COCCOCCNC(=O)CC[C@H](NC(=O)CCCCCCCCCCCCCCCCC(=O)O)C(=O)O)NC(=O)[C@H](C)NC(=O)[C@@H]1CCCN1C(=O)[C@H](C)NC(=O)CC(C)C)C(=O)N[C@@H](CCC(N)=O)C(=O)N[C@@H](CCCNC(=N)N)C(=O)N[C@@H](Cc1ccc(O)cc1)C(=O)N[C@@H](Cc1ccc(O)cc1)C(=O)N[C@H](C(=O)N[C@@H](CO)C(=O)N[C@@H](CC(C)C)C(=O)N[C@@H](CCCNC(=N)N)C(=O)N[C@@H](Cc1c[nH]cn1)C(=O)N[C@@H](Cc1ccc(O)cc1)C(=O)N[C@@H](Cc1ccc(O)cc1)C(=O)N[C@@H](CC(N)=O)C(=O)N[C@@H](Cc1c[nH]c2ccccc12)C(=O)N[C@@H](CC(C)C)C(=O)N[C@H](C(=O)N[C@@H](CCCNC(=N)N)C(=O)N[C@@H](CCC(N)=O)C(=O)N[C@@H](CCCNC(=N)N)C(=O)N[C@@H](Cc1ccc(O)cc1)C(N)=O)[C@@H](C)O)C(C)C [Compound E, N{alpha-4}-(3-methylbutanoyl)-N{epsilon-7}-[2-(2-{2-[2-(2-{2-[(4S)-4-carboxy-4-(17-carboxyheptadecanamido)butanamido]ethoxy}ethoxy)acetamido]ethoxy}ethoxy)acetamido]-[4A,6A,7K,9E,17I,18Q,22V,28Y,30W,31L]hPYY(4-36)]
BW 30 nmol/kg 5 day (body weight loss vs. vehicle group) ([1]; 30 nmol/kg s.c. once daily, 5 day): 7.3%
body weight lowering efficacy (% BW), combination with Compound I compared to combination with semaglutide ([1]; once daily (FIGS. 6A, 8A vs. 5A, 7A)): greater body weight lowering efficacy
duration of food intake reduction, combination with Compound I vs. combination with semaglutide ([1]; once daily (FIGS. 6B, 8B vs. 5B, 7B)): longer-lasting effect on food intake
total food intake, combination with Compound I ([1]; once daily, area under the curve of food intake (FIGS. 6D, 8D)): pronounced total food intake reduction
body weight loss in combination with Compound I ([1]; once daily, combination with Compound I (FIGS. 6A, 8A, 10A)): Synergistic body weight loss
effect on body weight in combination with semaglutide ([1]; once daily, combination with semaglutide (FIGS. 5A, 7A, 9A)): synergistic effect
AFI 10 nmol/kg 24 h (food intake normalized to vehicle group) [2]: 48%
